Like-named read-outs stand apart in the source and are kept apart here.
How the values were obtained:
Caspase3 in Hela S100 = experiment: In-vitro caspase-3 activation assay in Hela S100 extract; assay type: biochemical; conditions: 100 nM compound, Hela S100, 1 mM dATP; slope versus control (compound 1 = Caspase std.)
Method: Caspase3 in most cell extracts can be activated by the addition of 1 mM dATP through the mitochondria caspase pathway. […] Taking advantage of this feature, we use 100 nM of synthetic Smac mimetic compound to test its ability to eliminate IAPB in the Hela S100 and fully induce Caspase3 activity. The In Vitro Caspase3 assay is carried out at 30° C., incubating 100 nM compounds with 30 ug of Hela S100, 1 mM dATP, 10 uM Caspase3 fluorogenic substrate (Caspase3 Substrate II, Fluorogenic, #235425 from Calbiochem). The readout is caspase-3 activity represented by relative fluorogenic unit, which is recorded kinetically. The slope in linear region of the curve for each compound is calculated.
The ratio of each synthetic compound's slope versus the slope of control reflects in vitro caspase-3 activation ability of compounds.

[1] = biological target: T1, truncated XIAP containing only BIR1, BIR2, and BIR3 domains (Homo sapiens, UniProt P98170); experiment: Fluorescent polarization assay (Bir binding); conditions: competition with 2 nM fluorescein labeled AVPI peptide, room temperature, 1 hour
T1 construct: truncated XIAP containing only BIR1, BIR2, and BIR3 domains
T1 sequence (P98170 1-356 limits assumed): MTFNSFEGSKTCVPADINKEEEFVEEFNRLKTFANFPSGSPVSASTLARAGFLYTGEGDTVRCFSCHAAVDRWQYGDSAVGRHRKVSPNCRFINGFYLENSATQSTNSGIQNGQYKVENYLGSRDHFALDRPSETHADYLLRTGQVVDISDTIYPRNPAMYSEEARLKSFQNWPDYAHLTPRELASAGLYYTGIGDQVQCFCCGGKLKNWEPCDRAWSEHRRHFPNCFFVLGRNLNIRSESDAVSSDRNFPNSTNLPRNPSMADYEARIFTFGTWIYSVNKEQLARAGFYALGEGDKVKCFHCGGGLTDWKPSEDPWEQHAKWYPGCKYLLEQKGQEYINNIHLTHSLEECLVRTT
Method: Increasing concentrations of Smac compounds are incubated with 2 nM of labeled peptide (fluorescein labeled 10 mer peptide with AVPI 4 amino acids at its N terminus-Alexa Fluor 488) and truncated XIAP containing only BIR1, BIR2, and BIR3 domains at room temperature for 1 hour. Fluorescence reading, indicative of the bound portion of the labeled peptide, is measured in milipolarization units (mP). The more compound added, less fluorescein labeled peptide bind to the protein due to the competitive binding and less fluorescence signal is released.
Based on this principle, we obtain the Ki value that evaluates compound's binding affinity.

HCC461 cells = experiment: Cell viability assay in HCC461 cells (WST-1); assay type: cell-based; conditions: read-out: HCC461 cell
Method: HCC461 cells plated in 96 well plates at 5×10^4/ml cell density are treated with 50× synthetic Smac mimetic compounds (final concentration range between 30 uM and 0.001 uM). After 48 hrs incubation at 37° C. and 5% CO2, viability of the cells are measured using Cell Proliferation Reagent WST-1 assay kit (Roche Cat #11 644 807 001).
The tetrazolium salts are cleaved to formazan by cellular enzymes. An expansion in the number of viable cells results in an increase in the overall activity of mitochondrial dehydrogenases in the samples. This augmentation in the enzyme activity leads to an increase in the amount of formazan dye formed, which directly correlates to the number of metabolically active cells in the culture. Quantification of the formazan dye produced by metabolically active cells by using a microplate (ELISA) reader at 420-480 nm.

[2] = HCC461, 48 hrs incubation, WST-1 viability

SMILES: CN[C@@H](C)C(=O)N[C@@H](CC#CC#CC[C@H](NC(=O)[C@H](C)NC)C(=O)N1CCC[C@H]1C(=O)N[C@@H]1CCCc2ccccc21)C(=O)N1CCC[C@H]1C(=O)N[C@@H]1CCCc2ccccc21 [Compound 1]
- Caspase % (Caspase3 in Hela S100): 100%
- Bir binding [1]: 0.07 µM
- IC50 (HCC461 cells; HCC461, 48 h): 4 nM

SMILES: CN[C@@H](C)C(=O)N[C@@H](CCCCCC[C@H](NC(=O)[C@H](C)NC)C(=O)N1CCC[C@H]1C(=O)N[C@@H]1CCCc2ccccc21)C(=O)N1CCC[C@H]1C(=O)N[C@@H]1CCCc2ccccc21 [Compound 2]
- Caspase % (Caspase3 in Hela S100): 105%
- Bir binding [1]: 0.15 µM
- IC50 (HCC461 cells; HCC461, 48 h): 10 nM

SMILES: CNC(C)C(=O)N[C@@H](CC#CC#CC[C@H](NC(=O)[C@H](C)NC)C(=O)N1CCC[C@H]1C(=O)NC(c1ccccc1)c1ccccc1)C(=O)N1CCC[C@H]1C(=O)NC(c1ccccc1)c1ccccc1 (some centres unmarked) [Compound 3]
- Caspase % (Caspase3 in Hela S100): 48%
- Bir binding [1]: 0.12 µM
- IC50 (HCC461 cells; [2]): 26 nM

SMILES: CNC(C)C(=O)N[C@@H](CCCCCC[C@H](NC(=O)[C@H](C)NC)C(=O)N1CCC[C@H]1C(=O)NC(c1ccccc1)c1ccccc1)C(=O)N1CCC[C@H]1C(=O)NC(c1ccccc1)c1ccccc1 (some centres unmarked) [Compound 4]
- Caspase % (Caspase3 in Hela S100): 55%
- Bir binding [1]: 0.11 µM
- IC50 (HCC461 cells; [2]): 25 nM

SMILES: CNC(C)C(=O)N[C@@H](CCCCCC[C@H](NC(=O)[C@H](C)NC)C(=O)N1CCC[C@H]1C(=O)NCc1ccccc1)C(=O)N1CCC[C@H]1C(=O)NCc1ccccc1 (some centres unmarked) [Compound 6]
- Caspase % (Caspase3 in Hela S100): 82%
- Bir binding [1]: 0.2 µM
- IC50 (HCC461 cells; [2]): 2100 nM

SMILES: CN[C@@H](C)C(=O)N[C@@H](CC#CC#CC[C@H](NC(=O)[C@H](C)NC)C(=O)N1CCC[C@H]1C(=O)NC(C)c1ccccc1)C(=O)N1CCC[C@H]1C(=O)NC(C)c1ccccc1 (some centres unmarked) [Compound 7]
- Caspase % (Caspase3 in Hela S100): 101%
- Bir binding [1]: 0.144 µM
- IC50 (HCC461 cells; [2]): 373 nM

SMILES: CN[C@@H](C)C(=O)N[C@@H](CCCCCC[C@H](NC(=O)[C@H](C)NC)C(=O)N1CCC[C@H]1C(=O)NC(C)c1ccccc1)C(=O)N1CCC[C@H]1C(=O)NC(C)c1ccccc1 (some centres unmarked) [Compound 8]
- Caspase % (Caspase3 in Hela S100): 93%
- Bir binding [1]: 0.27 µM
- IC50 (HCC461 cells; [2]): 70 nM

SMILES: CC[C@H](NC)C(=O)N[C@@H](CC#CC#CC[C@H](NC(=O)[C@H](CC)NC)C(=O)N1CCC[C@H]1C(=O)N[C@@H]1CCCc2ccccc21)C(=O)N1CCC[C@H]1C(=O)N[C@@H]1CCCc2ccccc21 [Compound 9]
- Caspase % (Caspase3 in Hela S100): 108%
- Bir binding [1]: 0.196 µM
- IC50 (HCC461 cells; [2]): 9 nM

SMILES: CC[C@H](NC)C(=O)N[C@@H](CCCCCC[C@H](NC(=O)[C@H](CC)NC)C(=O)N1CCC[C@H]1C(=O)N[C@@H]1CCCc2ccccc21)C(=O)N1CCC[C@H]1C(=O)N[C@@H]1CCCc2ccccc21 [Compound 10]
- Caspase % (Caspase3 in Hela S100): 105%
- Bir binding [1]: 0.2 µM
- IC50 (HCC461 cells; [2]): 20 nM

SMILES: CN[C@@H](C)C(=O)N[C@H](C(=O)N1CCC[C@H]1C(=O)N[C@@H]1CCCc2ccccc21)[C@@H](C)OCC#CC=CCO[C@H](C)[C@H](NC(=O)[C@H](C)NC)C(=O)N1CCC[C@H]1C(=O)N[C@@H]1CCCc2ccccc21.Cl.Cl [Compound 11]
- Caspase % (Caspase3 in Hela S100): 94%
- Bir binding [1]: 0.172 µM
- IC50 (HCC461 cells; [2]): 12 nM

SMILES: CN[C@@H](C)C(=O)N[C@@H](CC#CC#CCO[C@H](C)[C@H](NC(=O)[C@H](C)NC)C(=O)N1CCCC1C(=O)N[C@@H]1CCCc2ccccc21)C(=O)N1CCCC1C(=O)N[C@@H]1CCCc2ccccc21.Cl.Cl (some centres unmarked) [Compound 13]
- Caspase % (Caspase3 in Hela S100): 105%
- Bir binding [1]: 0.188 µM
- IC50 (HCC461 cells; [2]): 70 nM

SMILES: CN[C@@H](C)C(=O)N[C@H](C(=O)N1CCCC1C(=O)N[C@@H]1CCCc2ccccc21)[C@@H](C)OCCCCCCO[C@H](C)[C@H](NC(=O)[C@H](C)NC)C(=O)N1CCC[C@H]1C(=O)N[C@@H]1CCCc2ccccc21.Cl.Cl (some centres unmarked) [Compound 14]
- Caspase % (Caspase3 in Hela S100): 104%
- Bir binding [1]: 0.158 µM
- IC50 (HCC461 cells; [2]): 620 nM

SMILES: CCC[C@H](NC)C(=O)N[C@@H](CC#CC#CC[C@H](NC(=O)[C@H](C)NC)C(=O)N1CCC[C@H]1C(=O)N[C@@H]1CCCc2ccccc21)C(=O)N1CCC[C@H]1C(=O)N[C@@H]1CCCc2ccccc21.Cl.Cl [Compound 15]
- Caspase % (Caspase3 in Hela S100): 87%
- Bir binding [1]: 0.638 µM
- IC50 (HCC461 cells; [2]): 80 nM

SMILES: CC[C@H](NC)C(=O)N[C@@H](CC#CC#CC[C@H](NC(=O)[C@H](C)NC)C(=O)N1CCC[C@H]1C(=O)N[C@@H]1CCCc2ccccc21)C(=O)N1CCC[C@H]1C(=O)N[C@@H]1CCCc2ccccc21.Cl.Cl [Compound 16]
- Caspase % (Caspase3 in Hela S100): 107%
- Bir binding [1]: 0.22 µM
- IC50 (HCC461 cells; [2]): 25 nM

SMILES: CN[C@@H](C)C(=O)N[C@@H](Cc1cn(CCCn2cc(C[C@H](NC(=O)[C@H](C)NC)C(=O)N3CCC[C@H]3C(=O)N[C@@H]3CCCc4ccccc43)nn2)nn1)C(=O)N1CCC[C@H]1C(=O)N[C@@H]1CCCc2ccccc21.Cl.Cl [Compound 17]
- Caspase % (Caspase3 in Hela S100): 98%
- Bir binding [1]: 0.136 µM
- IC50 (HCC461 cells; [2]): 690 nM

SMILES: CN[C@@H](C)C(=O)N[C@@H](Cc1nnn2c1-c1c(C[C@H](NC(=O)[C@H](C)NC)C(=O)N3CCC[C@H]3C(=O)N[C@@H]3CCCc4ccccc43)nnn1CCC2)C(=O)N1CCCC1C(=O)N[C@@H]1CCCc2ccccc21.Cl.Cl (some centres unmarked) [Compound 18]
- Caspase % (Caspase3 in Hela S100): 88%
- Bir binding [1]: 0.176 µM
- IC50 (HCC461 cells; [2]): 760 nM

SMILES: CN[C@@H](C)C(=O)N[C@H](C(=O)N1CCC[C@H]1C(=O)N[C@@H]1CCCc2ccccc21)[C@@H](C)OCc1nnn2c1-c1c(CO[C@H](C)[C@H](NC(=O)[C@H](C)NC)C(=O)N3CCC[C@H]3C(=O)N[C@@H]3CCCc4ccccc43)nnn1CCC2.Cl.Cl [Compound 19]
- Caspase % (Caspase3 in Hela S100): 98%
- Bir binding [1]: 0.14 µM
- IC50 (HCC461 cells; [2]): 240 nM

SMILES: CN[C@@H](C)C(=O)N[C@@H](Cc1cn(CCn2cc(C[C@H](NC(=O)[C@H](C)NC)C(=O)N3CCC[C@H]3C(=O)N[C@@H]3CCCc4ccccc43)nn2)nn1)C(=O)N1CCC[C@H]1C(=O)N[C@@H]1CCCc2ccccc21.Cl.Cl [Compound 20]
- Caspase % (Caspase3 in Hela S100): 99%
- Bir binding [1]: 0.18 µM
- IC50 (HCC461 cells; [2]): 520 nM

SMILES: CN[C@@H](C)C(=O)N[C@@H](Cc1nnn2c1-c1c(C[C@H](NC(=O)[C@H](C)NC)C(=O)N3CCC[C@H]3C(=O)N[C@@H]3CCCc4ccccc43)nnn1CC2)C(=O)N1CCCC1C(=O)N[C@@H]1CCCc2ccccc21.Cl.Cl (some centres unmarked) [Compound 21]
- Caspase % (Caspase3 in Hela S100): 70%
- Bir binding [1]: 1.13 µM
- IC50 (HCC461 cells; [2]): 2200 nM

SMILES: CN[C@@H](C)C(=O)N[C@H](C(=O)N1CCC[C@H]1C(=O)N[C@@H]1CCCc2ccccc21)[C@@H](C)OCc1cn(CCn2cc(CO[C@H](C)[C@H](NC(=O)[C@H](C)NC)C(=O)N3CCC[C@H]3C(=O)N[C@@H]3CCCc4ccccc43)nn2)nn1.Cl.Cl [Compound 22]
- Caspase % (Caspase3 in Hela S100): 106%
- Bir binding [1]: 0.13 µM
- IC50 (HCC461 cells; [2]): 810 nM

SMILES: CN[C@@H](C)C(=O)N[C@H](C(=O)N1CCC[C@H]1C(=O)N[C@@H]1CCCc2ccccc21)[C@@H](C)OCc1nnn2c1-c1c(CO[C@H](C)[C@H](NC(=O)[C@H](C)NC)C(=O)N3CCC[C@H]3C(=O)N[C@@H]3CCCc4ccccc43)nnn1CC2.Cl.Cl [Compound 23]
- Caspase % (Caspase3 in Hela S100): 109%
- Bir binding [1]: 0.13 µM
- IC50 (HCC461 cells; [2]): 490 nM

SMILES: CN[C@@H](C)C(=O)NC(C(=O)N[C@@H](Cc1cn(C/C=C\Cn2cc(C[C@H](NC(=O)[C@@H](NC(=O)[C@H](C)NC)C(C)(C)C)C(=O)N[C@@H]3CCCc4ccccc43)nn2)nn1)C(=O)N[C@@H]1CCCc2ccccc21)C(C)(C)C.Cl.Cl (some centres unmarked) [Compound 24]
- Caspase % (Caspase3 in Hela S100): 81%
- Bir binding [1]: 1.5 µM
- IC50 (HCC461 cells; [2]): 1400 nM

SMILES: CN[C@@H](C)C(=O)N[C@@H](CC#Cc1ccc([C@H](NC(=O)[C@H](C)NC)C(=O)N2CCC[C@H]2C(=O)N[C@@H]2CCCc3ccccc32)cc1)C(=O)N1CCC[C@H]1C(=O)N[C@@H]1CCCc2ccccc21.Cl.Cl [Compound 26]
- Caspase % (Caspase3 in Hela S100): 106%
- Bir binding [1]: 0.235 µM
- IC50 (HCC461 cells; [2]): 100 nM

SMILES: CN[C@@H](C)C(=O)N[C@@H](CCCc1ccc([C@H](NC(=O)[C@H](C)NC)C(=O)N2CCC[C@H]2C(=O)N[C@@H]2CCCc3ccccc32)cc1)C(=O)N1CCC[C@H]1C(=O)N[C@@H]1CCCc2ccccc21 [Compound 28]
- Caspase % (Caspase3 in Hela S100): 102%
- Bir binding [1]: 0.2 µM
- IC50 (HCC461 cells; [2]): 70 nM

SMILES: CN[C@@H](C)C(=O)N[C@@H](CCCc1ccc([C@H](NC(=O)[C@H](C)NC)C(=O)N2CCC[C@H]2C(=O)N[C@@H]2CCCc3ccccc32)cc1)C(=O)N1CCC[C@H]1C(=O)N[C@@H]1CCCc2ccccc21.Cl.Cl [Compound 38]
- Caspase % (Caspase3 in Hela S100): 102%
- Bir binding [1]: 0.2 µM

— US8586542B2, “Small molecule apoptosis promoters” (Joyant Pharmaceuticals, Inc., priority 2006, dated 2013)
